Laboratory results: patent US20060189546A1, “Compounds for treating autoimmune and demyelinating diseases” (priority 2005, published 2006)

What was measured:
IL-4 = experiment: Mediator release, IL-4 (Con A-stimulated PBML, sandwich ELISA); format: cell-based; conditions: Homo sapiens
Protocol: (§1) In this experiment, test compound and/or vehicle were preincubated with human peripheral blood mononuclear leukocyte (PBML, 1×10^6/ml) in RPMI buffer pH 7.4 for 2 hours. Concanavalin A (Con A, 20 μg/ml) was then added to stimulate the cells overnight in 5% CO2 at 37° C. IL-4 and IL-10 cytokine levels in the conditioned medium were then quantified using a sandwich ELISA kit. Compounds were screened at 10, 1, 0.1, 0.01 and 0.001 μM.

IL-10 = experiment: Mediator release, IL-10 (Con A-stimulated PBML, sandwich ELISA); format: cell-based; conditions: Homo sapiens, IL-10 release
Protocol: as §1

[1] = test system: Experimental Autoimmune Encephalomyelitis (EAE); format: in vivo, guinea pig
Protocol: Following disease induction, as previously described, the animals were randomized into 5 five cohorts, one vehicle control and 4 treatment cohorts. Animals in the treatment cohorts were administered study drug intraperitoneally at 20 mg/kg (Symadex™dihydrochloride trihydrate) once a week for 4, 6 and 8 weeks, with an additional cohort treated once a week for 4 weeks and observed for an additional 4 weeks of treatment with vehicle solution (saline) rather than with drug.
The only significant protocol deviation from the method of Example 2 was that the pool of immunized animals was culled of animals presenting with a disease severity greater than 2 and randomized so that the mean disease severity of each cohort was matched in the severity score range of 1 to 1.5. This measure was invoked in order to avoid the chance circumstance, observed in Example 2, that animal selected for treatment should start treatment with a more severe presentation than the corresponding vehicle controls.

[2] = test system: Experimental Autoimmune Encephalomyelitis (EAE); experiment: Acute EAE, daily dosing for 15 days (Example 5); format: in vivo, guinea pigs
Protocol: Accordingly, three randomized cohorts of guinea pigs with EAE induced by the method of Example 2, were treated, respectively, with 6 mg/kg of Symadex™ (full salt hydrate) and 0.35 mg/kg of mitoxantrone. Animals were treated daily, by intraperitoneal injection, for 15 days, starting on day 7 post immunization. Controls were treated with vehicle. We reasoned that 15 consecutive, 6 mg/kg doses of Symadex™ would represent a level of drug exposure that would be commensurate with the “20 mg/kg every 72 hours” regimen in Example 4 and consistent with a mid level exposure between the 20 mg/kg and the 40 mg/kg schedule given weekly, in Example 2. The mitoxantrone dose was selected to reflect a typical high dose given to rats or mice by daily dosing in the prior art, but allometrically scaled to the guinea pig.

HT29 cell line = experiment: GI50 concentration in HT29 cells; format: cell-based; conditions: Homo sapiens, HT-29
HCT116 cell line = experiment: GI50 concentration in HCT116 cells; format: cell-based; conditions: Homo sapiens, HCT-116
[3] = human, body surface area, as free base; cited from earlier work
[4] = 1 nM, read-out: % Growth Inhibition
[5] = 10 nM, read-out: % Growth Inhibition
[6] = 0.1 μM, read-out: % Growth Inhibition
[7] = 1 μM, read-out: % Growth Inhibition
[8] = 10 μM, read-out: % Growth Inhibition
[9] = necropsy after 15 daily doses, Symadex 6 mg/kg, mitoxantrone 0.35 mg/kg

Compound: CCN(CC)CCNc1ccc2ncn3c4ccc(O)cc4c(=O)c1c23 [Symadex™, 5-[[(diethylamino)ethyl]amino]-8-hydroxyimidazo[4,5,1-de]-acridine-6-one]
- % inhibition of IL-4 release at 0.001 µM (IL-4; [4]): 8%
- % inhibition of IL-4 release at 0.01 µM (IL-4; [5]): 7%
- % inhibition of IL-4 release at 0.1 µM (IL-4; [6]): 2%
- % inhibition of IL-4 release at 1 µM (IL-4; [7]): -9%
- % inhibition of IL-4 release at 10 µM (IL-4; [8]): 105%
- IC50 (IL-4; IL-4 release): 3330 nM
- IC50 (IL-10): 1200 nM
- inhibition at 0.001 µM (IL-10; [4]): 1%
- inhibition at 0.01 µM (IL-10; [5]): 16%
- inhibition at 0.1 µM (IL-10; [6]): 16%
- inhibition at 1 µM (IL-10; [7]): 39%
- inhibition at 10 µM (IL-10; [8]): 99%
- clinical scores after drug withdrawal ([1]; 20 mg/kg i.p. once a week for 4 weeks, then 4 weeks vehicle): remained in stable disease at the time of discontinuation
- mean clinical severity score ([1]; 20 mg/kg i.p. once a week, 4-week treatment cycle, starting mean 1.3): 0.7
- mean severity score ([1]; 20 mg/kg i.p. once a week, 6 week treatment course, control 1.3): 0.3
- clinical scores ([1]; 20 mg/kg i.p., 8 consecutive weekly doses): converges on baseline at the end of the treatment course
- clinical score (neurological impairment) ([2]; daily i.p. for 15 days from day 7, Symadex 6 mg/kg, mitoxantrone 0.35 mg/kg): the initial rise in neurological impairment is arrested
- weight gain profile vs vehicle controls, statistical significance ([2]; guinea pig, in vivo): did not show statistical significance
- reduction of meningeal inflammation (M) pathology score [2, 9]: does not
- reduction of perivascular cuffing (P), myelitis (E) and demyelination (D) pathology scores [2, 9]: statistically significant differences (p value<0.05) from control
- GI50 (HT29 cell line): 680 nM
- GI50 (HCT116 cell line): 210 nM
- safe and well-tolerated single dose [3]: 540 mg/m^2
